Assay results published in patent publication US20240285539A1, “PROTECTIVE COATING FOR MOISTURE SENSITIVE PHARMACEUTICAL COMPOSITIONS” (R.P. Scherer Technologies, LLC, priority 2021, published 2024).

Assay: Solubility, hygroscopicity and moisture sensitivity of AKST-4290 API
Assay type: physicochemical
Source text: Applicant has been able to prevent degradation utilizing the wax coating process described herein. This technique reduced the coating time and limited water uptake of core tablets improving impurity profile at T-0.
Specifically, the wax was applied as a sub-coat to the core tablets. In the case of AKST-4290, one of the purposes of this wax coat was to protect the API in the tablets from moisture. […] Although the relative humidity can be controlled during the upstream process of creating the tablet, this cannot be achieved in a coating process with aqueous solutions.

Which “Hygroscopicity of API” value (in words) does the source give for Cc1cc(C(=O)N(C)C)cc(NC(=O)[C@H]2CCC(=O)N2C2CCN(Cc3ccc(Cl)c(C)c3)CC2)n1 [AKST-4290] here?
The value was “highly hygroscopic”.

What about the “Solubility of API” value (in words) of the same compound?
Its value is “highly soluble”.

And the “Stability on exposure to humidity” value (relative humidity over 40%, even for a couple of minutes)?
The value was “undergoes both physical and chemical changes”.
